Data from article PMC5429698, “Biochemical analysis of leishmanial and human GDP-Mannose Pyrophosphorylases and selection of inhibitors as new leads” (Scientific Reports, 2017).
Several values for one entry are separate records, joined by “and”; a condition that tells them apart may be missing. Equal entries are not always repeated. Where two headings read alike, the source gives them in different places.

Assays:
T. brucei GDP-MP = system: T. brucei GDP-MP; parameters: method as in PMID 19919534; conditions: cited from earlier work
LmGDP-MP = LmGDP-MP (Leishmania mexicana, UniProt E9AW11); test: biochemical; assay type: biochemical; conditions: for Km: read-out: Km (µM) ± SD of LmGDP-MP
Sequence of LmGDP-MP (E9AW11 entry or part of it): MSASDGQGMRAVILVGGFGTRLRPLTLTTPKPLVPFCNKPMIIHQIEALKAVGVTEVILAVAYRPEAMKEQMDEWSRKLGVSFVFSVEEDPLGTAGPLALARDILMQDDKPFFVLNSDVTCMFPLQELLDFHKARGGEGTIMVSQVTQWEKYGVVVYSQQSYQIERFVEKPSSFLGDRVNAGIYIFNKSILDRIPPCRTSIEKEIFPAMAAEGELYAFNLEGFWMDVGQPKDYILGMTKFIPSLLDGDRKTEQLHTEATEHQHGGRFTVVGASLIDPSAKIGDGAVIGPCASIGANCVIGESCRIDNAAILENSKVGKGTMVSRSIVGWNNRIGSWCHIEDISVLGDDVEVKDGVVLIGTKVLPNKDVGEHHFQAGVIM
Protocol: (§1) GDP-MP catalyzes the following reaction: Man‐1‐P+GTP→GDP−Mannose+Pyrophosphate The reaction media were buffered at pH optima and contained optimal concentrations of Man-1-P, GTP, GDP-MP and Mg^2+ determined for each purified GDP-MP (Fig. 2d), supplemented with DTT (1 mM). Inorganic pyrophosphatase, which hydrolyses the inorganic pyrophosphates generated by the GDP-MPs in inorganic phosphates, was added at 0.1 U/ml (Sigma-Aldrich). Inorganic pyrophosphatase was added in excess to the reaction medium in order to minimize the probability that the putative inhibitors of GDP-MPs interfere with this enzyme. The reaction was initiated by the addition of GDP-MP, and was stopped after adding 100 µl of revelation buffer containing malachite green (0.03% w/v), ammonium molybdate (0.2% w/v) and Triton X-100 (0.05% v/v) in HCl (0.7 M) for 5 min at the optimal temperature. The quantity of inorganic phosphate generated, representing GDP-MP activity, was determined by measuring OD650nm (Lab systems Multiskan MS). The molar extinction coefficient ε of the end product detected was determined by measuring OD650nm with a range of inorganic phosphate concentrations diluted in the revelation buffer and was calculated at 27207 M^−1 cm^−1 (Supplementary Fig. S2). The kinetic constants K m, V m and k cat were determined by non linear regression using GraphPad Prism 6.0.
Enzyme activity was measured as described above in the presence of 100 µM of compounds and the percentage of inhibition was calculated in reference to untreated enzyme. As a control, compounds were evaluated in parallel in the same conditions on inorganic pyrophosphatase alone in order to discard false-positives. […] Furthermore, no effect was observed on the activity of the three purified GDP-MPs with 1% DMSO, corresponding to the maximal solvent concentration used at 100 µM of compound. Compounds presenting a minimum of 50% inhibition on a leishmanial GDP-MP were subsequently selected to determine their type of inhibition and their K i values. Inhibition data were fitted to competitive, non-competitive or uncompetitive models of enzyme inhibition by non linear least squares regression analysis using GraphPad Prism 6.0.

hGDP-MP = target: T1, hGDP-MP (Homo sapiens, UniProt Q9Y5P6); test: GDP-MP enzymatic assay (malachite green) on purified hGDP-MP; assay type: biochemical; conditions: NTP at 100 µM
T1 construct: made in house; host or cells: E. coli BL21(DE3), co-transformed with chaperone plasmid pG-KJE3
T1 sequence (Q9Y5P6 whole entry): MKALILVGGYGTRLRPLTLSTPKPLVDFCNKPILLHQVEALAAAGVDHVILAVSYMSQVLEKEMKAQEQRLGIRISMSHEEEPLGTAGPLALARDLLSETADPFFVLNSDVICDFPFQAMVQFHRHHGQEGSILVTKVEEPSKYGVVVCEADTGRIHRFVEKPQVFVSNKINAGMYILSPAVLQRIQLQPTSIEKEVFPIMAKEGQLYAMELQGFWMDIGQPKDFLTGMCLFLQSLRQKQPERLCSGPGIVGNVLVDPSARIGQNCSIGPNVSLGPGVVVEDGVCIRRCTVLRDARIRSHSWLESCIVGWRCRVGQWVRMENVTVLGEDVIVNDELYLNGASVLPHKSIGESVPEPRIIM
Protocol: as §1, with “The reaction was initiated by the addition of GDP-MP, and was stopped after adding 100 µl of revelation buffer containing malachite green (0.03% w/v), ammonium molybdate (0.2% w/v) and Triton X-100 (0.05% v/v) in HCl (0.7 M) for 5 min at the optimal temperature.” left out
Enzyme activity was measured as described above in the presence of 100 µM of compounds and the percentage of inhibition was calculated in reference to untreated enzyme. […]

Compound: Nc1ncnc2c1ncn2[C@@H]1O[C@H](COP(=O)(O)OP(=O)(O)OP(=O)(O)O)[C@@H](O)[C@H]1O [ATP]
- Km (T. brucei GDP-MP): 290 µM

Compound: Nc1nc2c(ncn2[C@@H]2O[C@H](COP(=O)(O)OP(=O)(O)OP(=O)(O)O)[C@@H](O)[C@H]2O)c(=O)[nH]1 [GTP]
- Km (LmGDP-MP; other substrate held constant at 80 µM): 7.67 ± 2.28 µM

Compound: O=c1[nH]cnc2c1ncn2[C@@H]1O[C@H](COP(=O)(O)OP(=O)(O)OP(=O)(O)O)[C@@H](O)[C@H]1O [ITP]
- hGDP-MP activity with substrate analogue compared to GTP (hGDP-MP): 22–24% and 24%
- LmGDP-MP activity with substrate analogue compared to GTP (LmGDP-MP; NTP at 100 µM): 22–24%

Compound: O=P(O)(O)OC1O[C@H](CO)[C@@H](O)[C@H](O)[C@@H]1O (some centres unmarked) [Man-1-P, mannose-1-phosphate]
- Km (LmGDP-MP): 11.6 ± 1.76 µM
